By IC50 is commonly meant the concentration that inhibits the measured activity by half. The low end stands for greater potency, the high end for weaker potency.

Data on 61 compounds can be found in US11780845B2 (Relay Therapeutics, Inc., priority 2019, dated 2023).

FGFR2, sequence (P21802 22-821): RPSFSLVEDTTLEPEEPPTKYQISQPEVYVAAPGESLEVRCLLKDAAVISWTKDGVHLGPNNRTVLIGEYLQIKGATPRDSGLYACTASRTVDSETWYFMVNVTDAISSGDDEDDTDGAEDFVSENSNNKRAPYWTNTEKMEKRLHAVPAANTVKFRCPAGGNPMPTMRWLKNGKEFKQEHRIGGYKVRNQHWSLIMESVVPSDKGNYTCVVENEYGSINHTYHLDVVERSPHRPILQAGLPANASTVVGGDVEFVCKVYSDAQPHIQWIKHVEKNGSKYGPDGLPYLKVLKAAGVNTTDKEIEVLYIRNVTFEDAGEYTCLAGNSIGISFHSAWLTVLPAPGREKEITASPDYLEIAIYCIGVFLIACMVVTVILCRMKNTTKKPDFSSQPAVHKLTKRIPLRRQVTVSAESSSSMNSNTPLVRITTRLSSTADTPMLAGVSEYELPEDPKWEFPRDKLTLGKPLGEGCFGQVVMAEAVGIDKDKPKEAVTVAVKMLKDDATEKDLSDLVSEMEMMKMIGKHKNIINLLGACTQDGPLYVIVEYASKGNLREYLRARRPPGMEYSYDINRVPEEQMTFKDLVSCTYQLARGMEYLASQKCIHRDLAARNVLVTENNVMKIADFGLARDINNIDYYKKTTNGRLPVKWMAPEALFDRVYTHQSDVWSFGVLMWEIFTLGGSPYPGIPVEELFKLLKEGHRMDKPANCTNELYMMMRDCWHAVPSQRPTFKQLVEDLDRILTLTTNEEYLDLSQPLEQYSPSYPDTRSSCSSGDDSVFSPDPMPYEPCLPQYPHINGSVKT

In this test the target is FGFR2 (Homo sapiens (Human), UniProt P21802). Briefly: FGFR2 Biochemical Caliper Assay. On the procedure:
Compounds of the present invention were also tested in a FGFR2 Biochemical Caliper Assay. Compounds were prepared in 10 mM DMSO solution and serially diluted into 11 concentrations by 3-fold dilution. […] 5 uL of ATP solution (100 uM) was added to start the reaction and the plate was incubated for 90 minutes, then 70 uL of stopping buffer (0.5M EDTA) was added to terminate the reaction. Each well was analyzed using EZ reader.
Turning to `C=CC(=O)Nc1ccc(-c2c(-c3ccc(Oc4ncc(N)cn4)c(OC)c3)c3c(N)ncnc3n2C)cc1` [Example 87], the IC50 was less than 0.1 µM.

Turning to `C=C(C)C(=O)Nc1ccc(-c2c(-c3ccc(Oc4ccccc4)c(OC)c3)c3c(N)ncnc3n2C)cc1` [Example 30], the IC50 is 0.25 to 1 µM.

On to `C=C(C)C(=O)Nc1ccc(-c2c(-c3ccc(C(=O)N(C)CC4(F)COC4)cc3)c3c(N)ncnc3n2C)c(F)c1` [Example 467], for which the half-maximal inhibitory concentration (IC50) lay within 0.1 to 0.25 µM.

Compound `C=C(C)C(=O)Nc1ccc(-c2c(-c3ccc(C(=O)N(C)CC4COC4)cc3)c3c(N)ncnc3n2C)c(F)c1` [Example 489] displayed an IC50 of 0.25 to 1 µM.

For `C=C(C)C(=O)Nc1ccc(-c2c(-c3ccc(C(=O)N4CCC[C@@H]4C#N)cc3)c3c(N)ncnc3n2C)cc1` [Example 356], the IC50 lay in the range of 0.1 to 0.25 µM.

Take `C=C(C)C(=O)Nc1ccc(-c2c(C3=CC[C@@H](C(=O)N4CC[C@@H](CO)C4)CC3)c3c(N)ncnc3n2C)cc1` (single isomer, unassigned) [Example 583]: the IC50 was in the range of 0.25 to 1 µM.

For the compound `C=CC(=O)N1CCc2cc(-c3c(-c4ccc(Oc5cccc(C)n5)c(OC)c4)c4c(N)ncnc4n3C)ccc21` [Example 10], the IC50 was less than 0.1 µM.

Take `C=C(C)C(=O)Nc1ccc(-c2c(-c3ccc4c(c3)CN(C)C4=O)c3c(N)ncnc3n2C)cc1` [Example 209]: the IC50 was 1 to 100 µM.

The compound `C=CC(=O)N1CCC(c2c(-c3ccc(Oc4cccc(C)n4)c(OC)c3)c3c(N)ncnc3n2C)=CC1C` (stereo not shown) [Example 679] displayed a half-maximal inhibitory concentration (IC50) of less than 0.1 µM.

With `C=C(C)C(=O)Nc1ccc(-c2c(-c3ccc(N)c(OC(F)(F)F)c3)c3c(N)ncnc3n2C)cc1` [Example 177], the IC50 lay in the range of 1 to 100 µM.

Take `C=C(C)C(=O)Nc1ccc(-c2c(-c3ccc(C(=O)NCC4CC(O)C4)cc3)c3c(N)ncnc3n2C)cc1` (stereo not shown) [Example 323]: the IC50 fell in the range of 0.1 to 0.25 µM.

Regarding `C=C(C)C(=O)Nc1ccc(-c2c(-c3ccc(C(=O)N(C)Cc4ncno4)cc3)c3c(N)ncnc3n2C)cc1` [Example 481], the IC50 fell in the range of 1 to 100 µM.

Take `C=C(C)C(=O)Nc1ccc(-c2c(-c3ccc(C(=O)N(C)CCOC)cc3)c3c(N)ncnc3n2C)cc1` [Example 284]: the IC50 lay in the range of 1 to 100 µM.

The compound `C=C(C)C(=O)Nc1ccc(-c2c(C3=CC[C@@H](Oc4ccn(C)n4)CC3)c3c(N)ncnc3n2C)cc1` (single isomer, unassigned) [Example 549] gave an IC50 of 1 to 100 µM.

`C=C(C)C(=O)Nc1ccc(-c2c(-c3ccc(C(=O)N4CCC5(COC5)C4)cc3)c3c(N)ncnc3n2C)cc1` [Example 271]: the IC50 fell in the range of 1 to 100 µM.

On to `C=C(C)C(=O)Nc1ccc(-c2c(-c3ccc4[nH]c(C(=O)O)cc4c3)c3c(N)ncnc3n2C)cc1` [Example 185], for which the IC50 was 1 to 100 µM.

For the compound `C=C(C)C(=O)Nc1ccc(-c2c(-c3cc(C)c(Oc4ccccn4)c(O)c3)c3c(N)ncnc3n2C)cc1` [Example 129], the concentration for half-maximal inhibition (IC50) lay within 0.25 to 1 µM.

`C=CC(=O)Nc1ccc(-c2c(-c3ccc(Nc4ncccn4)cc3)c3c(N)ncnc3n2C)cc1` [Example 58] came in with an IC50 of less than 0.1 µM.

As to `C=C(C)C(=O)Nc1ccc(-c2c(-c3ccc(C(=O)N4CC5CC4(C(F)F)C5)cc3)c3c(N)ncnc3n2C)cc1` [Example 595], the IC50 is less than 0.1 µM.

Turning to `CCC(=O)Nc1ccc(-c2c(-c3ccc(Oc4ncccn4)cc3)c3c(N)ncnc3n2C)cc1` [Example 63], the IC50 lay in the range of 1 to 100 µM.

As to `C=C(C)C(=O)Nc1ccc(-c2c(-c3ccc(-c4nc(C)c(C)o4)cc3)c3c(N)ncnc3n2C)cc1` [Example 279], the IC50 lay in the range of 0.1 to 0.25 µM.

`C=C(C)C(=O)Nc1ccc(-c2c(-c3ccc(Oc4cccc(C)n4)cc3)c3c(N)ncnc3n2CCN(C)C)cc1` [Example 80] gave an IC50 of 0.1 to 0.25 µM.

Consider `C/C=C/C(=O)Nc1ccc(-c2c(-c3cccc(OC)c3)c3c(N)ncnc3n2C)cc1` [Example 72], for which the IC50 lay within 0.25 to 1 µM.

Compound `C=C(C)C(=O)Nc1ccc(-c2c(-c3ccc(CC(=O)N(C)C)c(F)c3)c3c(N)ncnc3n2C)cc1` [Example 173] yielded a half-maximal inhibitory concentration (IC50) of 1 to 100 µM.

For `C=CC(=O)N(C)c1ccc(-c2c(-c3ccc(Oc4cccc(C)n4)c(OC)c3)c3c(N)ncnc3n2C)cc1` [Example 6], the IC50 was in the range of 0.1 to 0.25 µM.

With `C=C(C)C(=O)Nc1ccc(-c2c(-c3cncc(CO)c3)c3c(N)ncnc3n2C)cc1` [Example 134], the half-maximal inhibitory concentration (IC50) lay within 1 to 100 µM.

Compound `C=C(C)C(=O)Nc1ccc(-c2c(-c3cc(O)c(Oc4ccccn4)c(Cl)c3)c3c(N)ncnc3n2C)cc1` [Example 162] showed an IC50 of 0.25 to 1 µM.

`C=C(C)C(=O)Nc1ccc(-c2c(-c3ccc(C(=O)N4CCCC4)cc3)c3c(N)ncnc3n2C)c(CN2CCOCC2)c1` [Example 486] returned an IC50 of 1 to 100 µM.

`C=CC(=O)Nc1ccc(-c2c(-c3ccc(Oc4cccc(C)n4)c(C)c3)c3c(N)ncnc3n2C)cc1` [Example 19] showed an IC50 of less than 0.1 µM.

In turn, `C=C(C)C(=O)Nc1ccc(-c2c(-c3ccc(Oc4nccc(C)n4)c(COC)c3)c3c(N)ncnc3n2C)cc1` [Example 501] displayed a half-inhibitory concentration (IC50) of 1 to 100 µM.

Compound `C=C(C)C(=O)Nc1ccc(-c2c(-c3ccc(-n4cc(C)cn4)nc3)c3c(N)ncnc3n2C)cc1` [Example 165] registered a concentration for half-maximal inhibition (IC50) of 0.25 to 1 µM.

As to `C=C(C)C(=O)Nc1ccc(-c2c(-c3ccc(OCC(=O)O)cc3)c3c(N)ncnc3n2C)cc1` [Example 124], the IC50 is 1 to 100 µM.

`C=C(C)C(=O)Nc1ccc(-c2c(-c3ccc4c(c3)C(C)N(C)C4=O)c3c(N)ncnc3n2C)cc1` (stereo not shown) [Example 287] showed an IC50 of 1 to 100 µM.

For `C=CCC(=O)Nc1ccc(-c2c(-c3ccc(Oc4cccc(C)n4)c(OC)c3)c3c(N)ncnc3n2C)cc1` [Example 2], the IC50 is 0.25 to 1 µM.

`C=C(C)C(=O)Nc1ccc(-c2c(-c3ccc(Oc4ncc(F)cn4)c(N(C)C)c3)c3c(N)ncnc3n2C)cc1` [Example 443] registered an IC50 of 1 to 100 µM.

`C=C(C)C(=O)Nc1ccc(-c2c(-c3ccc(Oc4ncccn4)cc3)c3c(N)ncnc3n2C)cc1` [Example 52] yielded an IC50 of less than 0.1 µM.

Take `C=C(C)C(=O)Nc1ccc(-c2c(C3=CC[C@H](C(=O)N4CC5CCC(C5)C4)CC3)c3c(N)ncnc3n2C)cc1` [Example 420]: the IC50 lay in the range of 1 to 100 µM.

In the case of `C=C(C)C(=O)Nc1ccc(-c2c(C3=CC[C@H](C(=O)N4CC5CC5C4)CC3)c3c(N)ncnc3n2C)cc1` (stereo partly shown) [Example 581], the IC50 fell in the range of 1 to 100 µM.

As for `C=C(C)C(=O)Nc1ccc(-c2c(-c3cnn(Cc4cccnc4)c3)c3c(N)ncnc3n2C)cc1` [Example 126], the IC50 lay within 1 to 100 µM.

As to `C=CC(=O)N1CCC(N2CC(c3c(-c4ccc(Oc5cccc(C)n5)c(OC)c4)c4c(N)ncnc4n3C)C2)CC1` [Example 658], the IC50 fell in the range of 1 to 100 µM.

As for `C=C(C)C(=O)Nc1ccc(-c2c(-c3ccc(C(=O)N4CCCC4)cc3)c3c(N)ncnc3n2C)c(CC)c1` [Example 477], the IC50 was 0.1 to 0.25 µM.

The compound `Cn1c(-c2ccc(NC(=O)C3=CCCC3)cc2)c(-c2ccc(C(=O)N3CCCC3)cc2)c2c(N)ncnc21` [Example 523] registered an IC50 of 1 to 100 µM.

For the compound `C=CC(=O)N1Cc2ccc(-c3c(-c4ccc(Oc5cccc(C)n5)c(OC)c4)c4c(N)ncnc4n3C)cc2C1` [Example 8], the 50% inhibitory concentration (IC50) is less than 0.1 µM.

In turn, `C=C(C)C(=O)Nc1ccc(-c2c(-c3ccc(Oc4cccc(C)c4)cc3)c3c(N)ncnc3n2C)cc1` [Example 29] yielded an IC50 of 0.25 to 1 µM.

`C=C(C)C(=O)Nc1ccc(-c2c(-c3ccc(C(=O)N4CCCC4)cc3C(F)F)c3c(N)ncnc3n2C)cc1` [Example 588]: the IC50 was 1 to 100 µM.

Regarding `C=C(C)C(=O)Nc1ccc(-c2c(-c3ccc(C(=O)NC4CCN(C)C4=O)cc3)c3c(N)ncnc3n2C)cc1` (stereo not shown) [Example 389], the IC50 lay in the range of 0.1 to 0.25 µM.

The compound `C=C(C)C(=O)Nc1ccc(-c2c([C@H]3CC[C@@H](C(=O)N4CCCC4)CC3)c3c(N)ncnc3n2C)cc1` [Example 577] returned an IC50 of 1 to 100 µM.

`C=C(C)C(=O)Nc1ccc(-c2c(-c3cnn(Cc4ccncc4)c3)c3c(N)ncnc3n2C)cc1` [Example 179] gave an IC50 of 1 to 100 µM.

`C=C(C)C(=O)Nc1ccc(-c2c(-c3ccc(Oc4ncc(Cl)cn4)c(OC)c3)c3c(N)ncnc3n2C)cc1` [Example 102] registered an IC50 of 0.1 to 0.25 µM.

For `C=C(C)C(=O)Nc1ccc(-c2c(-c3ccc(S(=O)(=O)NCC(F)(F)F)cc3)c3c(N)ncnc3n2C)cc1` [Example 326], the IC50 was in the range of 1 to 100 µM.

`CCC(=O)Nc1ccc(-c2c(-c3ccc(Oc4cccc(C)n4)c(OC)c3)c3c(N)ncnc3n2C)cc1` [Example 66]: the IC50 fell in the range of 1 to 100 µM.

`C=C(C)C(=O)Nc1ccc(-c2c(-c3ccc(C(=O)N(C)CC4(OC)CC4)cc3)c3c(N)ncnc3n2C)cc1` [Example 440]: the IC50 lay within 1 to 100 µM.

Regarding `C=C(C)C(=O)Nc1ccc(-c2c(-c3ccc(C(=O)N(CCN)CC(F)(F)F)cc3)c3c(N)ncnc3n2C)cc1` [Example 430], the IC50 is 0.25 to 1 µM.

On to `C=CC(=O)N[C@H]1C[C@@H](n2cc(-c3c(-c4ccc(Oc5ccccc5)cc4)c4c(N)ncnc4n3C)cn2)C1` [Example 606], for which the IC50 is less than 0.1 µM.

For the compound `C=C(C)C(=O)Nc1ccc(-c2c(-c3ccc(OC4CCN(C)CC4)nc3)c3c(N)ncnc3n2C)cc1` [Example 187], the IC50 fell in the range of 1 to 100 µM.

`C=CC(=O)Nc1ccc(-c2c(-c3ccccc3)c3c(N)ncnc3n2C)cc1` [Example 76] registered an IC50 of 0.1 to 0.25 µM.

`Cn1c(-c2ccc(N3CC=CS3(=O)=O)cc2)c(-c2ccc(C(=O)N3CCCC3)cc2)c2c(N)ncnc21` [Example 556] gave an IC50 of 0.25 to 1 µM.

Turning to `C=C(C)C(=O)Nc1ccc(-c2c(-c3ccc(Oc4ncc(CO)cn4)c(OC)c3)c3c(N)ncnc3n2C)cc1` [Example 65], the IC50 was in the range of 1 to 100 µM.

The compound `C=C(C)C(=O)Nc1ccc(-c2c(-c3ccc(C(=O)NC4CCOC4)c(OC)c3)c3c(N)ncnc3n2C2COC2)cc1` (stereo not shown) [Example 400] showed an IC50 of 0.1 to 0.25 µM.

In turn, `C=CC(=O)Nc1ccc(-c2c(-c3ccc(Oc4ncccc4C)c(OC)c3)c3c(N)ncnc3n2C)cc1` [Example 42] displayed an IC50 of less than 0.1 µM.

In the case of `C=C(C)C(=O)Nc1ccc(-c2c(C3=CC[C@H](C(=O)N4CCC[C@H]4C#N)CC3)c3c(N)ncnc3n2C)cc1` (single isomer, unassigned) [Example 574], the IC50 lay in the range of 0.25 to 1 µM.
